{"source": "patent US20130217132A1", "about": "“METHODS, COMPOSITIONS AND USE FOR ENHANCING CHEMICAL TOLERANCE BY MICROORGANISMS” (priority 2009, published 2013)", "key": {"MG1655 E. coli strain": {"tested_on": "MG1655 E. coli strain", "experiment": "Minimum inhibitory concentration (MIC) assay of furfural in MOPS minimal media", "type": "cell-based", "settings": "Escherichia coli", "protocol": "In one exemplary method, assays were performed to determine minimum inhibitory concentration (MIC) of ethanol, furfural and acetate for BW25113 and MG1655 E. coli strains. […] Cells from each strain were inoculated from the same optical density into a total of 100 μL of varying furfural concentrations in a minimal media, for example using MOPS. Cell growth in the first 24 hr or 48 hr in the presence of furfural was monitored. The left bar in each pair for each indicated strain represents a first concentration of furfural that inhibited bacterial growth after 24 hr. The right bar for each strain represents the first concentration that inhibited growth after 48 hr. The MIC reads were the average of triplicates (n=3), and error bars represent standard deviation. […] ArecA signifies strains where the gene has been knocked out as previously described.\nThe minimum inhibitory concentration (MIC) of furfural of MG1655 and BW25113 with or without lpcA overexpression was determined. MIC assays were performed as described in Example 13. […] MIC reads were average of triplicates (n=3), and error bars represent standard deviation. The SDS-PAGE gel image in FIG. 17C represents LPS level of the cells indicated above the gel image (duplicate of each cell sample was presented). LPS was extracted from the indicated cells grown to exponential phase. Loading of LPS the SDS-PAGE gel was normalized to the cell number. The gel was stained for visualization after desired separation of LPS was obtained."}, "[1]": {"tested_on": "BW25113 ArecA cells overexpressing lpcA gene (pLPCA)", "type": "cell-based, E. coli", "settings": "for OD600 (cell growth in the presence of furfural): furfural 1 g/L, lpcA overexpression, FIG. 19", "protocol": "(§1) FIGS. 17A-17B represent methods of identification of a gene related to restoring tolerance. Multiple genome-wide SCALE selection was performed in the presence of ethanol, furfural and acetate respectively. The data set obtained for each compound was compared to the others. Alleles enriched in all cases were identified. […] To restore tolerance, overexpression of identified genes in bacterial cells was performed. For example, lpcA ORF was cloned into the pBTL-1 vector. BW25113 ArecA cells transformed with the blank pBTL-1 vector were used as a control. BW25113 ArecA cells overexpressing lpcA gene were referred to as pLPCA. Cells were inoculated at a standard cell density into MOPS minimal media, supplemented with furfural, acetate or ethanol. After 24 hours, growth of the cells was analyzed.\n(§2) The indicated cells were grown in MOPS minimal media supplemented with glucose as a carbon source. Furfural was added to the media at the concentration of 1 g/L. Arabinose was added at 10 mM where indicated to gauge effect of AraC binding. The BW25113 araC::FRT-kan clone corresponds to JW0063, a BW25113 araC knockout mutant ordered from the Keio Collection directly. pBTL-1 represented the blank vector, and pLPCA referred to lpcA gene overexpression. […] To analyze the LPS level in the cells indicated in FIG. 19, LPS are extracted from the cells grown to exponential phase. Loading of LPS for the protein gel is normalized to the cell number. The gel is stained to visualize LPS protein bands after desired separation is obtained.\n(§3) BW25113, MG1655, and derivatives were used where indicated. JW0063, an araC mutant of BW25113 was obtained from the Coli Genetic Stock Center (Yale). Overnight bacterial cultures were grown in Luria-Bertani medium with shaking. MOPS minimal medium (previously presented) with 0.2% glucose as a carbon source, was used for all seed cultures and growth studies. Seed cultures were inoculated at 2 v/v % from an overnight culture and were grown to mid-exponential phase. Growth cultures were inoculated with 10 v/v % seed cultures of an OD600 of 0.195-0.200 for an initial optical density of ˜0.02. Carbenicillin and kanamycin were used where appropriate at 100 μg/ml and 30 μg/ml, respectively. The pBTL-1 vector (previously described) was used as the control blank vector for all growth studies. Genome-wide furfural selection"}, "[2]": {"tested_on": "BW25113 ArecA cells transformed with the blank pBTL-1 vector", "type": "cell-based, E. coli", "protocol": "as §1, §2, §3"}, "[3]": {"tested_on": "pBTL-1 Control (blank vector) culture", "experiment": "Aerobic growth (specific growth, final OD600) in MOPS minimal media with inhibitor, control", "type": "cell-based, E. coli", "settings": "aerobic growth in 1 g/L furfural", "protocol": "(§4) Certain experiments described herein were performed in E. coli BW25113 recA-, with the kanamycin resistance gene removed.\n(§5) Cultures were grown in 10 ml MOPS minimal media, 100 μg carbenicillin/ml, and either 1 g furfural/1 supplemented, 2 g HMF/1, or 4 g acetate/1, in 15 ml conical tubes at 37° C. The optical density of 1 ml culture was measured with a spectrophotometer at 600 nm. A natural log transformation of the data was then calculated and then a regression line was fit to the data to calculate specific growth, which is […] to the culture doubling time. The blank vector, pBTL-1, served as the control. The lpcA gene was cloned into the pBTL-1 using standard cloning techniques and primers designed to amplify the gene from template DNA."}, "pBTL-1 lpcA culture": {"tested_on": "pBTL-1 lpcA culture", "type": "cell-based, E. coli", "settings": "aerobic growth in 1 g/L furfural", "protocol": "as §4, §5"}, "[4]": {"tested_on": "pyruvate dehydrogenase (PDH) complex", "settings": "0.12 g/L furfural; cited from earlier work"}, "ADH": {"tested_on": "ADH", "settings": "0.12 g/L furfural; cited from earlier work"}, "E. coli LYO1": {"tested_on": "E. coli LYO1", "settings": "cited from earlier work"}, "[5]": {"settings": "furfural vs. furfuryl alcohol; cited from earlier work"}}, "note": "Read-outs that look alike come from different tables or passages of the source."}
{"smiles": "O=Cc1ccco1", "note": "[furfural, furan-2-carbaldehyde]", "values": [{"measurement": "MIC", "setting": "MG1655 E. coli strain; MG1655, read-out: MIC of furfural", "value": 1250, "unit": "µg/mL"}, {"measurement": "MIC", "setting": "MG1655 E. coli strain; MG1655, after 24 hr, n=3, read-out: MIC (first concentration of furfural that inhibited bacterial growth)", "value": 1200, "unit": "µg/mL"}, {"measurement": "MIC", "setting": "MG1655 E. coli strain; MG1655, after 48 hr, n=3, read-out: MIC (first concentration of furfural that inhibited bacterial growth)", "value": 1800, "unit": "µg/mL"}, {"measurement": "OD600 (cell growth in the presence of furfural)", "setting": "[1]; Arabinose 10 mM", "value": 0.3}, {"measurement": "OD600 (cell growth in the presence of furfural)", "setting": "[1]; no Arabinose", "value": 0.1}, {"measurement": "improvement of final optical density by pLPCA in BW25113", "setting": "[1]; furfural 1 g/l", "value": "252±8", "unit": "%"}, {"measurement": "OD600 at 24 hr", "setting": "[1]; pLPCA cells, 1 g/L of furfural", "value": "about 1.2"}, {"measurement": "OD600 at 24 hr", "setting": "[2]; control cells, 1 g/L of furfural", "value": "about 0.2"}, {"measurement": "OD600 (cell growth in the presence of furfural)", "setting": "[2]; furfural 1 g/L, blank vector pBTL-1, no Arabinose, FIG. 19", "value": 0.05}, {"measurement": "Final OD600 (24 hr)", "setting": "[3]", "value": 0.586}, {"measurement": "Specific Growth", "setting": "[3]; n=3", "value": 0.111, "unit": "h⁻¹"}, {"measurement": "Final OD600 (24 hr)", "setting": "pBTL-1 lpcA culture", "value": 0.918}, {"measurement": "Specific Growth", "setting": "pBTL-1 lpcA culture; n=3", "value": 0.153, "unit": "h⁻¹"}, {"measurement": "activity reduction", "setting": "[4]", "value": "more than 80%"}, {"measurement": "activity inhibited", "setting": "ADH", "value": 60, "unit": "%"}, {"measurement": "ethanol production", "setting": "E. coli LYO1", "value": "inhibited"}, {"measurement": "toxicity on a concentration basis", "setting": "[5]", "value": "~2", "unit": "g/L"}]}
